Results on 10 compounds are retold here after US8338482B2, “Modulating notch1 signaling pathway for treating neuroendocrine tumors” (Wisconsin Alumni Research Foundation, priority 2007, dated 2012).

One series has as its system hASH1. The note with it: small cell lung cancer cells; cited from earlier work.
The next series concerns carcinoid tumor cells. Conditions: cited from earlier work.
Series [1] relates to BON human GI carcinoid cancer cells. Briefly: Western blot analysis of GI carcinoid cells. The series is classed as cell-based. As to the method:
Cell Culture BON human GI carcinoid cancer cells, kindly provided by Drs. B. Mark Evers and Courtney M. Townsend, Jr.
Total protein concentrations were quantified with a bicinchoninic acid assay kit (Pierce Biotechnology, Rockford, Ill., USA). Denatured cellular extracts were resolved by SDS-PAGE, transferred to nitrocellulose membranes (Schleicher and Schuell, Keene, N.H., USA), blocked in milk, and incubated with appropriate antibodies. The antibody dilutions were: 1:1,000 for Notch1 (Santa Cruz Biotechnology, Santa Cruz, Calif., USA), mammalian achaete-scute homolog 1 (ASCL1; BD Biosciences, San Diego, Calif., USA), chromogranin A (Zymed Laboratories, San Francisco, Calif., USA), and cyclin D1 (Cell Signaling Technology, Danvers, Mass., USA), 1:2,000 for p21 (Cell Signaling Technology) and p27 (Santa Cruz Biotechnology), and 1:10,000 for glyceraldehyde-3-phosphate dehydrogenase (G3PDH; Trevigen, Gaithersburg, Md., USA). Horseradish peroxidase conjugated goat anti-rabbit or goat anti-mouse secondary antibodies (Pierce Biotechnology) were used depending on the source of the primary antibody. For visualization of the protein signal, Immunstar (Bio-Rad Laboratories, Hercules, Calif., USA) or SuperSignal West Femto (Pierce Biotechnology) kits were used per the manufacturer's instructions.
Cell Culture BON human gastrointestinal (GI) carcinoid tumor cells, kindly provided by Drs. B. Mark Evers and Courtney M. Townsend, Jr.
Total protein concentrations were quantified with a bicinchoninic acid assay kit (Pierce Biotechnology, Rockford, Ill.). Denatured cellular extracts were resolved by SDS-PAGE, transferred onto nitrocellulose membranes (Schleicher and Schuell, Keene, N H), blocked in milk, and incubated with appropriate antibodies. The antibody dilutions were: 1:1,000 for Notch1 (Santa Cruz Biotechnology, Santa Cruz, Calif.), mammalian achaete-scute homolog 1 (ASCL1; BD Biosciences, San Diego, Calif.), chromogranin A (Zymed Laboratories, San Francisco, Calif.), and cyclin D1 (Cell Signaling Technology, Danvers, Mass.), 1:2,000 for p21 (Cell Signaling Technology) and p27 (Santa Cruz Biotechnology), and 1:10,000 for glyceraldehyde-3-phosphate dehydrogenase (G3PDH; Trevigen, Gaithersburg, Md.). Horseradish peroxidase conjugated goat anti-rabbit or goat anti-mouse secondary antibodies (Pierce Biotechnology) were used depending on the source of the primary antibody. For visualization of the protein signal, Immunstar (Bio-Rad Laboratories, Hercules, Calif.) or SuperSignal West Femto (Pierce Biotechnology) kits were used per the manufacturer's instructions.
For orientation: Immunoblotting shows a protein as a band on a membrane.

In series [2] the test system is H727 human lung carcinoid cancer cells. Kind of series: Western blot analysis of pulmonary carcinoid cells. Format: cell-based.
A further series has as its system Notch1. Kind of series: CBF1 binding site luciferase reporter assay. Format: cell-based, human. The note with it: DAPT 50 μM pretreatment 45 minutes, then 4 mM VPA. Here is the method: Luciferase Reporter Assays GI carcinoid tumor cells were transiently transfected with luciferase constructs as previously described (Kunnimalaiyaan, M. et al., Conservation of the Notch1 signaling pathway in gastrointestinal carcinoid cells A J Physiol Gastrointest Liver Physiol 2005; 289:G636-642). Wild-type (4xwtCBF1Luc; 2 μg) or mutant (4xmutCBF1Luc; 2 μg) CBF1-luciferase reporter plasmids were co-transfected with CMV-β-gal (0.5 μg) (Hsieh J J et al., Truncated Mammalian Notch1 Activates CBF1/RBPJk-Repressed Genes by a Mechanism Resembling That of Epstein-Barr Virus EBNA2. Mol Cell Biol 1996; 16:952-959). In experiments with the γ-secretase inhibitor, N-[N-(3,5-difluorophenacetyl)-L-alanyl]-S-phenylglycine t-butyl ester (DAPT; EMD Biosciences, Darmstadt, Germany), to inhibit Notch1 cleavage and activation, cells were pretreated for 45 minutes with DAPT (50 μM) then treated with 4 mM VPA. […] Luciferase levels were measured using a Monolight 2010 Luminometer (Analytical Luminescence Laboratory, San Diego, Calif.). […]

In a further series the test system is MEK. Kind of series: MEK inhibitors and Notch1-mediated hormone suppression. Format: cell-based, human. The note with it: PD098059 25-50 uM or U0126 5-20 uM pre-treatment. As to the method:
1) MEK inhibitors. BON, BON-Notch1, H727, H727-Notch1, TT, and TT-Notch1 cells are pre-treated with either PD098059 (25-50 uM) or U0126 (5-20 uM) (both well-characterized MEK inhibitors) (Sippel R S, et al., Am J Physiol Gastrointest Liver Physiol 2003; 285:G245-G254; Sippel R S, et al., Surgery 2003; 134:866-871), alone or in combination, followed by addition of control or doxycycline (1 μg) for 24, 48, and 96 hours. Cells are then analyzed with the following methods.
2) Confirmation of MEK inhibition. To confirm MEK inhibition after treatment with PD098059 and U0126, cellular extracts are analyzed by Western blots utilizing antibodies against MEK, phospho-MEK, ERK1/2, and phospho-ERK1/2. MAPK in vitro kinase assay with a commercially available kit (Cell Signal Technology) is used to confirm blockade of MEK activity.
3) hASH1 and NE marker expression. To determine if MEK inhibition blocks Notch1-mediated NE marker suppression, cellular extracts are analyzed using western blots with hASH1, chromogranin A, synaptophysin, and neuron-specific enolase, and serotonin or calcionin secretion will be assessed using an ELISA assay, as described above.

As for “c5pMiss1: missense oligonucleotide 5′-GCUACAUCUGGUCGC-3′ (SEQ ID NO: 3) (listed as RNA, chemistry not given here)”, the hASH1 expression result in the series on hASH1 is given as “no affect”.
With `CC(/C=C/C(=O)NO)=C\[C@@H](C)C(=O)c1ccc(N(C)C)cc1` [trichostatin A], in the series with carcinoid tumor cells, the “cyclin D1” value is “concomitant downregulation”; the “p21 and p27” value was “increase”.
Take `O=C(CCCCCCC(=O)Nc1ccccc1)NO` [SAHA, suberoylanilide hydroxamic acid]: the ASCL1 protein entry in series [1] (30 μM, 2 days) is reported as “undetectable level”; in series [1] (SBHA/SAHA treatment, 48 hours), “dose-dependent decrease”; in series [2] (SBHA/SAHA treatment, 48 hours) it was “dose-dependent decrease”. Further, the “chromogranin A level” value in series [1] (SBHA/SAHA, 2 days of treatment) is on record as “only modest inhibition”; in series [2] (50 μM, 2 days) it was “complete suppression”. Besides, the “concentrations at which significant Notch1 induction was seen” value in series [2] (48 hours) fell in the range of 20 to 30 µM.
As for “c5p1476: hASH1 anti-sense oligonucleotide 5′-GGAGCCCACUGCUUU-3′ (SEQ ID NO: 1), directed at the hASH1 3′UTR (listed as RNA, chemistry not given here)”, the hASH1 expression entry in the series on hASH1 is reported as “very potent inhibitor”.
`CCCC(=O)[O-].[Na+]` [sodium butyrate]: in the series with carcinoid tumor cells, the “cyclin D1” value is listed as “concomitant downregulation”; the “p21 and p27” value was “increase”.
For “c5p25: hASH1 anti-sense oligonucleotide 5′-UCCUACUAAGGCUGC-3′ (SEQ ID NO: 2) (listed as RNA, chemistry not given here)”, the hASH1 expression result with hASH1 is recorded as “minimal hASH1 inhibitory activity”.
As to `C[C@H](NC(=O)Cc1cc(F)cc(F)c1)C(=O)N[C@H](C(=O)OC(C)(C)C)c1ccccc1` [DAPT, N-[N-(3,5-difluorophenacetyl)-L-alanyl]-S-phenylglycine t-butyl ester], the “effect of VPA on CBF1 binding” value in the series on Notch1 was “blocked the effect of VPA on CBF1 binding”.
Consider “c5pMiss2: missense oligonucleotide 5′-CACUGAUGCACCUGU-3′ (SEQ ID NO: 4) (listed as RNA, chemistry not given here)”, for which, in the series with hASH1, the hASH1 expression result was “no affect”.
Regarding `N#CC(=C(/N)Sc1ccccc1N)/C(C#N)=C(\N)Sc1ccccc1N` [U0126], the Notch1-mediated hormone suppression result with MEK is given as “block”.
On the same count and under the same terms, with `COc1cccc(-c2cc(=O)c3ccccc3o2)c1N` [PD098059] the entry was “block”.
